Laboratory results as given in US9125913B2, “Bcl-2-selective apoptosis-inducing agents for the treatment of cancer and immune diseases” (AbbVie Inc., priority 2008, dated 2015).

Each compound was assayed on GST-Bcl-2 (assay: TR-FRET binding assay, Bcl-2). Details: TR-FRET Ki values.
How it was run: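 Ki values come from Wang's competitive-binding equation applied to TR-FRET signal (excitation 340/35 nm; emission 520/525 nm F-Bak peptide, 495/510 nm Tb antibody). Protein, probe and antibody incubated with compound 3 h at room temperature; dilution series began at 50 μM as 2× stock in 10% DMSO.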
In the case of `CC1(C)CCC(CN2CCN(c3ccc(C(=O)NS(=O)(=O)c4ccc(NCC5COCCO5)c([N+](=O)[O-])c4)c(Oc4ccc5[nH]ccc5c4)c3)CC2)=C(c2ccc(Cl)cc2)C1` (centres unmarked) [EXAMPLE 336, 4-(4-{[2-(4-chlorophenyl)-4,4-dimethylcyclohex-1-en-1-yl]methyl}piperazin-1-yl)-N-({4-[(1,4-dioxan-2-ylmethyl)amino]-3-nitrophenyl}sulfonyl)-2-(1H-indol-5-yloxy)benzamide], the “Binding selectivity ratio (Bcl-XL Ki/Bcl-2 Ki)” value (shortened to “Binding selectivity ratio”) is reported as 2301.3. `CC1(C)CCC(CN2CCN(c3ccc(C(=O)NS(=O)(=O)c4cnc(OCC5CCOCC5)c(Cl)c4)c(Oc4cccc5[nH]ccc45)c3)CC2)=C(c2ccc(Cl)cc2)C1` [EXAMPLE 387, 4-(4-{[2-(4-chlorophenyl)-4,4-dimethylcyclohex-1-en-1-yl]methyl}piperazin-1-yl)-N-{[5-chloro-6-(tetrahydro-2H-pyran-4-ylmethoxy)pyridin-3-yl]sulfonyl}-2-(1H-indol-4-yloxy)benzamide] was tested, and the “Binding selectivity ratio” value was 1723.4. In the case of `CC1(C)CC(c2ccc(Cl)cc2)=C(CN2CCN(c3ccc(C(=O)NS(=O)(=O)c4ccc(NCC5CCOCC5)c([N+](=O)[O-])c4)c(Oc4ccc5[nH]ccc5c4)c3)CC2)CO1` [EXAMPLE 182, 4-(4-{[4-(4-chlorophenyl)-6,6-dimethyl-5,6-dihydro-2H-pyran-3-yl]methyl}piperazin-1-yl)-2-(1H-indol-5-yloxy)-N-({3-nitro-4-[(tetrahydro-2H-pyran-4-ylmethyl)amino]phenyl}sulfonyl)benzamide], the “Binding selectivity ratio” value is reported as over 7595.8. In the case of `CCN(CC)C1CCC(Nc2ccc(S(=O)(=O)NC(=O)c3ccc(N4CCN(CC5=C(c6ccc(Cl)cc6)CC(C)(C)CC5)CC4)cc3Oc3ccc4[nH]ccc4c3)cc2[N+](=O)[O-])CC1` (centres unmarked) [EXAMPLE 201, 4-(4-{[2-(4-chlorophenyl)-4,4-dimethylcyclohex-1-en-1-yl]methyl}piperazin-1-yl)-N-[(4-{[4-(diethylamino)cyclohexyl]amino}-3-nitrophenyl)sulfonyl]-2-(1H-indol-5-yloxy)benzamide], the “Binding selectivity ratio” value is reported as 196.6. For `CC1(C)CCC(CN2CCN(c3ccc(C(=O)NS(=O)(=O)c4ccc(CCC5OCCO5)c([N+](=O)[O-])c4)c(Oc4ccc5[nH]ccc5c4)c3)CC2)=C(c2ccc(Cl)cc2)C1` [EXAMPLE 278, 4-(4-{[2-(4-chlorophenyl)-4,4-dimethylcyclohex-1-en-1-yl]methyl}piperazin-1-yl)-N-({4-[2-(1,3-dioxolan-2-yl)ethyl]-3-nitrophenyl}sulfonyl)-2-(1H-indol-5-yloxy)benzamide], the “Binding selectivity ratio” value was over 929.4. In the case of `CC1(C)CCC(CN2CCN(c3ccc(C(=O)NS(=O)(=O)c4ccc(NC5CCN(C6CCOCC6)CC5)c([N+](=O)[O-])c4)c(Oc4cccc5[nH]ncc45)c3)CC2)=C(c2ccc(Cl)cc2)C1` [EXAMPLE 401, 4-(4-{[2-(4-chlorophenyl)-4,4-dimethylcyclohex-1-en-1-yl]methyl}piperazin-1-yl)-2-(1H-indazol-4-yloxy)-N-({3-nitro-4-[(1-tetrahydro-2H-pyran-4-ylpiperidin-4-yl)amino]phenyl}sulfonyl)benzamide], the “Binding selectivity ratio” value is reported as over 162.14. In the case of `CN(C)CCCNc1ccc(S(=O)(=O)NC(=O)c2ccc(N3CCN(Cc4ccccc4-c4ccc(Cl)cc4)CC3)cc2Oc2ccccc2)cc1C(F)(F)F` [Example 92, 4-{4-[(4′-chloro-1,1′-biphenyl-2-yl)methyl]piperazin-1-yl}-N-{[4-{[3-(dimethylamino)propyl]amino}-3-(trifluoromethyl)phenyl]sulfonyl}-2-phenoxybenzamide], the “Binding selectivity ratio” value is reported as 79.7. `CC1(C)CCC(CN2CCN(c3ccc(C(=O)NS(=O)(=O)c4ccc(NC5CCN(CCCO)CC5)c([N+](=O)[O-])c4)c(Oc4ccc5[nH]ccc5c4)c3)CC2)=C(c2ccc(Cl)cc2)C1` [EXAMPLE 197, 4-(4-{[2-(4-chlorophenyl)-4,4-dimethylcyclohex-1-en-1-yl]methyl}piperazin-1-yl)-N-[(4-{[1-(3-hydroxypropyl)piperidin-4-yl]amino}-3-nitrophenyl)sulfonyl]-2-(1H-indol-5-yloxy)benzamide] was tested, and the “Binding selectivity ratio” value was 193. For `COCCNc1ccc(S(=O)(=O)NC(=O)c2ccc(N3CCN(CC4=C(c5ccc(Cl)cc5)CC(C)(C)CC4)CC3)cc2Oc2cccc3[nH]ccc23)cc1[N+](=O)[O-]` [EXAMPLE 239, 4-(4-{[2-(4-chlorophenyl)-4,4-dimethylcyclohex-1-en-1-yl]methyl}piperazin-1-yl)-2-(1H-indol-4-yloxy)-N-({4-[(2-methoxyethyl)amino]-3-nitrophenyl}sulfonyl)benzamide], the “Binding selectivity ratio” value was 430.9. `CC1(C)CCC(CN2CCN(c3ccc(C(=O)NS(=O)(=O)c4ccc(NCC5CCOCC5)c([N+](=O)[O-])c4)c(Oc4cccc5[nH]ccc45)c3)CC2)=C(c2ccc(Cl)cc2)C1` [EXAMPLE 244, 4-(4-{[2-(4-chlorophenyl)-4,4-dimethylcyclohex-1-en-1-yl]methyl}piperazin-1-yl)-2-(1H-indol-4-yloxy)-N-({3-nitro-4-[(tetrahydro-2H-pyran-4-ylmethyl)amino]phenyl}sulfonyl)benzamide] was tested, and the “Binding selectivity ratio” value was over 4136.9. `CC1(C)CCC(CN2CCN(c3ccc(C(=O)NS(=O)(=O)c4ccc(NCCCN5CCOCC5)c(S(=O)(=O)C(F)(F)F)c4)c(Oc4ccc5[nH]ccc5c4)c3)CC2)=C(c2ccc(Cl)cc2)C1` [EXAMPLE 348, 4-(4-{[2-(4-chlorophenyl)-4,4-dimethylcyclohex-1-en-1-yl]methyl}piperazin-1-yl)-2-(1H-indol-5-yloxy)-N-({4-[(3-morpholin-4-ylpropyl)amino]-3-[(trifluoromethyl)sulfonyl]phenyl}sulfonyl)benzamide] was tested, and the “Binding selectivity ratio” value was 97.1. With `CC1(C)CCC(CN2CCN(c3ccc(C(=O)NS(=O)(=O)c4ccc(NCC5(F)CCOCC5)c([N+](=O)[O-])c4)c(Oc4cccc5[nH]cnc45)c3)CC2)=C(c2ccc(Cl)cc2)C1` [EXAMPLE 441, 2-(1H-benzimidazol-4-yloxy)-4-(4-{[2-(4-chlorophenyl)-4,4-dimethylcyclohex-1-en-1-yl]methyl}piperazin-1-yl)-N-[(4-{[(4-fluorotetrahydro-2H-pyran-4-yl)methyl]amino}-3-nitrophenyl)sulfonyl]benzamide] the “Binding selectivity ratio” value was 2421.9. In the case of `CC1(C)CCC(CN2CCN(c3ccc(C(=O)NS(=O)(=O)c4ccc(NCC5(C)COC5)c([N+](=O)[O-])c4)c(Oc4ccc5[nH]ccc5c4)c3)CC2)=C(c2ccc(Cl)cc2)C1` [EXAMPLE 264, 4-(4-{[2-(4-chlorophenyl)-4,4-dimethylcyclohex-1-en-1-yl]methyl}piperazin-1-yl)-2-(1H-indol-5-yloxy)-N-[(4-{[(3-methyloxetan-3-yl)methyl]amino}-3-nitrophenyl)sulfonyl]benzamide], the “Binding selectivity ratio” value is reported as over 2808.4. In the case of `CC1(C)CCC(CN2CCN(c3ccc(C(=O)NS(=O)(=O)c4cnc(OCCN5CCOCC5)c(C#N)c4)c(Oc4ccc5[nH]ccc5c4)c3)CC2)=C(c2ccc(Cl)cc2)C1` [EXAMPLE 388, 4-(4-{[2-(4-chlorophenyl)-4,4-dimethylcyclohex-1-en-1-yl]methyl}piperazin-1-yl)-N-{[5-cyano-6-(2-morpholin-4-ylethoxy)pyridin-3-yl]sulfonyl}-2-(1H-indol-5-yloxy)benzamide], the “Binding selectivity ratio” value is reported as 185.1. In the case of `O=C(NS(=O)(=O)c1ccc(NCCn2ccnn2)c([N+](=O)[O-])c1)c1ccc(N2CCN(Cc3ccccc3-c3ccc(Cl)cc3)CC2)cc1Oc1ccccc1` [Example 164, 4-{4-[(4′-chloro-1,1′-biphenyl-2-yl)methyl]piperazin-1-yl}-N-[(3-nitro-4-{[2-(1H-1,2,3-triazol-1-yl)ethyl]amino}phenyl)sulfonyl]-2-phenoxybenzamide], the “Binding selectivity ratio” value is reported as 143.3. In the case of `CC(c1ccccc1-c1ccc(Cl)cc1)N1CCN(c2ccc(C(=O)NS(=O)(=O)c3ccc(NCC4CCOCC4)c([N+](=O)[O-])c3)c(Oc3ccc4[nH]ccc4c3)c2)CC1` (centres unmarked) [EXAMPLE 252, 4-{4-[1-(4′-chloro-1,1′-biphenyl-2-yl)ethyl]piperazin-1-yl}-2-(1H-indol-5-yloxy)-N-({3-nitro-4-[(tetrahydro-2H-pyran-4-ylmethyl)amino]phenyl}sulfonyl)benzamide], the “Binding selectivity ratio” value is reported as over 8570.3. In the case of “4-(4-{[2-(4-chlorophenyl)-4,4-dimethylcyclohex-1-en-1-yl]methyl}piperazin-1-yl)-N-{[4-({[Cis-4-hydroxy-1-adamantyl]methyl}amino)-3-nitrophenyl]sulfonyl}-2-(1H-indol-5-yloxy)benzamide [EXAMPLE 322]”, the “Binding selectivity ratio” value is reported as over 3591.4. In the case of `CC1(C)CCC(CN2CCN(c3ccc(C(=O)NS(=O)(=O)c4ccc(NC5CCN(CCCO)CC5)c([N+](=O)[O-])c4)c(Oc4cccc5[nH]ccc45)c3)CC2)=C(c2ccc(Cl)cc2)C1` [EXAMPLE 195, 4-(4-{[2-(4-chlorophenyl)-4,4-dimethylcyclohex-1-en-1-yl]methyl}piperazin-1-yl)-N-[(4-{[1-(3-hydroxypropyl)piperidin-4-yl]amino}-3-nitrophenyl)sulfonyl]-2-(1H-indol-4-yloxy)benzamide], the “Binding selectivity ratio” value is reported as 170.2. In the case of `CCN(CC)C1CCC(Nc2ccc(S(=O)(=O)NC(=O)c3ccc(N4CCN(CC5=C(c6ccc(Cl)cc6)CC(C)(C)CC5)CC4)cc3Oc3cccc4[nH]ccc34)cc2[N+](=O)[O-])CC1` (centres unmarked) [EXAMPLE 203, 4-(4-{[2-(4-chlorophenyl)-4,4-dimethylcyclohex-1-en-1-yl]methyl}piperazin-1-yl)-N-[(4-{[4-(diethylamino)cyclohexyl]amino}-3-nitrophenyl)sulfonyl]-2-(1H-indol-4-yloxy)benzamide], the “Binding selectivity ratio” value is reported as 139.5. With `CN(C)CCCN(C)c1ccc(S(=O)(=O)NC(=O)c2ccc(N3CCN(Cc4ccccc4-c4ccc(Cl)cc4)CC3)cc2Oc2ccccc2)cc1[N+](=O)[O-]` [Example 87, 4-{4-[(4′-chloro-1,1′-biphenyl-2-yl)methyl]piperazin-1-yl}-N-({4-[[3-(dimethylamino)propyl](methyl)amino]-3-nitrophenyl}sulfonyl)-2-phenoxybenzamide] the “Binding selectivity ratio” value was 533.8.
